Assay results: a melting point compilation (Tetko et al.; mined from patent text by program, amines drawn as free bases though some values may be those of a salt)

Row | melting point | SMILES
1 | 142 to 146 °C | Cc1nn(CC(F)(F)COC(=O)CN)c(-c2ccc(F)cc2)c1-c1ccc2c(c1)NC(=O)CO2
2 | 295 to 300 °C | O=C(CC1CCCCC1)Nc1c(Cl)ccc2nc(N3CCC(c4nnn[nH]4)CC3)ccc12
3 | 134 to 136 °C | CNS(=O)(=O)C1CN(C)c2cc(F)ccc2C1=O (stereo not given)
4 | 182 to 183 °C | COc1cc2c(cc1C=NO)C(C)(C)CCC2(C)C
5 | 71 to 72 °C | CCCc1cc2ccccn2c1C(C)=O
6 | 150 to 152 °C | O=C(c1cccn1N1C(=O)c2ccccc2C1=O)C1CC1
7 | 127 to 129 °C | CCOC(=O)C(C#N)=Cc1c(OC)nc2c(C)cccn12
8 | 175 to 176 °C | C=CCC1(C(=O)OC)C(=O)Nc2ccccc2CC1c1ccc(OC)cc1 (stereo not given)
9 | 271 to 273 °C | Cc1cc(NC(=O)c2[nH]c(C)c(-c3nc4ccc(C(=O)c5ccccc5)cc4[nH]3)c2C)no1
10 | 169 to 171 °C | COC(=O)N1CCN(C(=O)c2cc(S(=O)(=O)NN(C)C)ccc2N)CC1
11 | 206 to 208 °C | NC(=O)c1ccnc(N2CCN(Cc3ccc(F)cc3)C2=O)c1
12 | 40 to 40.5 °C | CC1(C)CCc2cc(O)c(C=O)cc21
13 | < 50 °C | N#CCCOc1ccc2c(c1)CCO2
14 | 148 °C | COc1cc(N)c(Cl)cc1-c1noc(C2CCN(CC3CCCO3)CC2)n1 (stereo not given)
15 | 88 to 90 °C | CC(C)c1ccc(NC(=O)OC(C)(C)C)c(C(=O)NCC2CCN(C(c3ccccc3)c3ccccc3)CC2)c1
16 | 213 to 215 °C | CC(C)OC(=O)c1cc(-n2c(=O)[nH]c3c(c2=O)CCO3)c(F)cc1Cl

Row | melting point | SMILES
17 | 150 to 151 °C | CCCNCCC1Cc2ccc(-c3ccc(=O)[nH]n3)cc2C1 (stereo not given)
18 | 93 to 97 °C | CCOC(=O)COc1cccc2c1C[C@@H](NCc1ccccc1)[C@H](O)C2 (relative stereo)
19 | 172 to 173 °C | CC(C)(C)OC(=O)n1cccc1-c1ccc2c(c1)C(C)(C)OC(=O)N2
20 | 190 °C | CC1(C)COc2ccc(S(=O)(=O)n3c(Cc4ccccc4C(=O)O)cc4cc(Cl)ccc43)cc21
21 | 154 to 156 °C | CCN(C(=O)c1ccccc1C(=O)c1ccc(F)cc1)C(C)(C)CNS(=O)(=O)c1ccc(C)cc1
22 | 140 to 143 °C | O=S1N=C(NCCCOc2cccc(CN3CCCCC3)c2)C(NCc2cccnc2)=N1 (stereo not given)
23 | 165 to 168 °C | CC(=O)OCCN1C(=O)C(NC(=O)Nc2cccc(-c3nnn[nH]3)c2)N=C(C2CCCCC2)c2cccc(C)c21 (stereo not given)
24 | 212 °C | CCOC(=O)C1=C(C)NC2(C)ON=C(C)C2C1c1ccccc1[N+](=O)[O-] (stereo not given)
25 | 129 °C | Nc1cccc(S(=O)(=O)NCc2cccnc2)c1
26 | 231 to 233 °C | Cc1cc2c(cc1S(N)(=O)=O)S(=O)(=O)NC(C1CCCCC1)N2 (stereo not given)
27 | 118 to 122 °C | O=C(c1cc(C2=CCCCC2)ccn1)N(O)Cc1ccccc1
28 | 167 °C | CC(C)C1CNCc2cccc3[nH]c(=O)n1c23 (stereo not given)
29 | 236 to 238 °C | COc1ccc(CC2SC(=O)NC2=O)cc1C(=O)NCc1ccc([N+](=O)[O-])cc1 (stereo not given)
30 | 99 to 100 °C | COC(=O)N[C@@H]1CCc2ccc(Br)cc2C1
31 | 121 to 122 °C | COCCOc1cc(N)c([N+](=O)[O-])cc1I

The remaining lines, values behind:

Row | SMILES | melting point
32 | CCc1c(C(=O)C(N)=O)c2c(OCC(=O)O)cc3c(c2n1Cc1ccccc1)CCCC3 | 222 to 225 °C
33 | Cc1ccc(CN(CCCC(N)=O)Cc2ccc(C)cc2)cc1 | 85 to 86 °C
34 | CCCCN1C(=O)CSC(=NOC(=O)NC)C1C (stereo not given) | 118 to 120 °C
35 | COc1ccc(-c2cc(-c3ccccc3)nc(C)c2C(=O)Cl)cc1OC | 140 °C
36 | COc1cc(C)c(C(=O)CCCCCCCCCCO)c(O)c1OC | 81 °C
37 | N#Cc1nn(-c2c(Cl)cc(C(F)(F)F)cc2Cl)cc1C1CC(=O)C1(Cl)Cl (stereo not given) | 118 to 120 °C
38 | CCCN(CCC)C(=O)CCC(=O)O | 35 to 37 °C
39 | Oc1nsnc1-c1ccc(Cl)cc1 | 240 to 242 °C
40 | c1ccc2cc(N3CCC4(CCNCC4)CC3)ccc2c1 | 158 to 162 °C
41 | CS(=O)(=O)OCCOc1ccccc1OCc1ccccc1 | 98 to 100 °C
42 | COC(=O)C(C)(C)Sc1cccc(OCc2ccc(-c3ccc([N+](=O)[O-])cc3)o2)c1 | 81 to 82 °C
43 | COC(=O)CC=Cc1c(C(C)C)cc(C(C)C)cc1C(C)C | 61 to 63 °C
44 | COc1cc(C(=O)CCC(=O)c2cc(OC)c(OC)c(OC)c2)cc(I)c1OCc1ccccc1 | 134 to 135 °C
45 | CCOC(=O)CCc1cn(C)nc1O | 89 to 91 °C
46 | C1=C(CCCc2ccccc2)CCN(Cc2nc3ccccc3[nH]2)C1 | 131 to 132 °C
47 | Cn1nc(C(=O)NCC2(O)CN3CCC2CC3)c2ccccc21 (stereo not given) | 147 to 149 °C
48 | CC(C)(O)c1ccc(-c2ccc(=O)n(Cc3ccc(Cl)cc3)c2)cc1 | 157 °C
49 | CNC(=NS(C)(=O)=O)NCCSCc1csc(CN(C)C)n1 | 95 to 97 °C
50 | Cc1cccc(NC(=O)c2ccccc2SSc2ccccc2C(=O)Nc2cccc(C)c2)c1 | 193 to 195 °C
51 | O=C(Nc1cccnc1NCc1ccc(Cl)cc1)c1ccccc1[N+](=O)[O-] | 145 to 147 °C
52 | COc1cc(-c2nc3ccc(OCCN(C(C)C)C(C)C)cc3n2Cc2ccccc2)cc(OC)c1OC | 101 °C
53 | Nc1nc(Oc2c(Cl)cccc2Cl)nc2nc(-c3ccco3)nn12 | 270 to 272 °C
54 | O=C(Nc1ccc(F)cc1F)NN1CC=CCC1 | 136 to 137 °C

Row | SMILES | melting point
55 | COc1cc(COc2nn(C)cc2C(C)=O)ccc1OCc1nc(-c2ccccc2)oc1C | 170 to 171 °C
56 | CCc1cccc(CC(=O)O)c1OCCCn1cc(C(=O)NCc2ccc(C(F)(F)F)cc2)c(OC(C)C)n1 | 108 °C
57 | C=CCC1(CC=C)c2cc(Br)ccc2-c2ccc(Br)cc21 | 149 to 150 °C
58 | CCOc1ccc2[nH]c3c(c2c1)C[C@@]1(C)C(=O)N(CCBr)C(=O)N1[C@@H]3c1cccc(O)c1 (racemic) | 250 to 252 °C
59 | Cc1ccccc1C(=O)NC(NC(=S)Nc1cccnc1)C(C)(C)C (stereo not given) | 186 to 187 °C
60 | CCSc1ccc2c3c(cccc13)C(=O)N2 | 144 to 146 °C
61 | O=C1NN=C(CCc2ccccc2)c2c[nH]c3cccc1c23 | 182 to 184 °C
62 | O=C(O)COc1cc2onc(-c3ccccc3F)c2cc1Br | 223 to 224 °C
63 | CCNc1nc(SC)ncc1C(=O)O | 188 °C
64 | COC(=O)CSC1c2ccccc2C=Cc2ccccc21 | 74 to 76 °C
65 | O=C(c1ccccc1)N1CCNc2ncccc21 | 166 to 168 °C
66 | CCOc1nc(NCc2ccncc2)nc(Nc2ccc3cc[nH]c3c2)n1 | 198 to 200 °C
67 | N#Cc1nn(-c2c([N+](=O)[O-])cc(C(F)(F)F)cc2[N+](=O)[O-])c(N)c1SC(F)(F)F | 214 °C
68 | CC[Si](C#Cc1c2cc3ccccc3cc2c(C#C[Si](CC)(CC)CC)c2cc3ccccc3cc12)(CC)CC | 210 °C
69 | CCn1nc(-c2ccccc2)c(C(C)=O)c(Nc2cccc(F)c2)c1=O | 176 to 178 °C
70 | COc1cc(CCC[C@H]2OC(=O)NC2=O)ccc1OCc1nc(-c2ccco2)oc1C | 122 to 123 °C
71 | O=C1c2ccccc2C(=O)N1COc1ccc([N+](=O)[O-])cc1 | 145 to 148 °C
72 | CNC(=O)N(O)Cc1cccs1 | 108 °C
73 | O=C(O)Cc1ccc[nH]1 | 83 to 84 °C
74 | COc1ccccc1CN1CCC(=O)C(C2c3ccccc3Oc3ccccc32)C1 (stereo not given) | 96 to 97 °C
75 | CSCOc1ccc(-c2coc3ccc(-c4nnc(C)o4)cc23)cc1 | 116 to 117 °C
76 | O=C(Cn1c(-c2ccc(Cl)cc2)ncc(NC(=O)OCc2ccccc2)c1=O)NC(Cc1ccccc1)C(=O)C(F)(F)F (stereo not given) | 199 to 201 °C
77 | CCOC(=O)c1c(C(F)(F)F)nc(-c2ccccc2)c(-c2ccccc2)c1O | 130 °C

Row | SMILES | melting point
78 | N#CC(C#N)=C1N(CCCN2CCCCC2)CCN1CCN1CCc2ccccc2C1 | 101 to 102 °C
79 | CC(C)[Si](Oc1ccc2c(=O)c(N3CCC(O)(c4ccccc4)CC3)coc2c1)(C(C)C)C(C)C | 163 to 164 °C
80 | O=c1c2ccccc2sc(-c2ccncc2)[n+]1[O-] | 248 to 252 °C
81 | Cn1cccc1C1=CC(=O)c2ncccc2C1=O | 167 to 168 °C
82 | CCOP(=O)(CNC(=O)OC(C)(C)C)CNC(=O)OC(C)(C)C | 118 to 120 °C
83 | CC(=O)Oc1ccc(C(=O)Nc2cccc(OCc3cccnc3)c2)cc1C(C)(C)C | 58 to 62 °C
84 | CCCC1(CCC)c2cc(Br)ccc2-c2cc(OC)c(Br)cc21 | 127 to 132 °C
85 | CC1(C)CC(=O)c2cc(OCc3ccccc3)ccc2O1 | 105 to 107 °C
86 | CC(Cl)=CC(C#N)NC(=O)c1cn(C)nc1C (stereo not given) | 113 to 114 °C
87 | Cc1nnc2n1-c1ccc(C#CCn3nc4ccccn4c3=O)cc1C(c1ccccc1F)=NC2 | 170 to 173 °C
88 | CS(=O)c1nnc2c3ccccc3c(-c3ccccc3)nn12 (stereo not given) | 215 to 217 °C
89 | COc1nc2cc([N+](=O)[O-])c(C)c(C(=O)N(C)C)c2nc1OC | 138 to 141 °C
90 | CCCCC(C)(C)C(NC(=O)c1ccc(Cl)cc1)NC(=NC#N)Nc1cccnc1 (stereo not given) | 168 to 170 °C
91 | Cc1ccccc1-c1nc(N)ncc1-c1ccc(=O)n(C)n1 | 229 °C
92 | COc1cc(C(C#N)CCC(C#N)c2cc(OC)c(OC)c(OC)c2)cc(OC)c1OC (stereo not given) | 173 to 174 °C
93 | O=C(O)c1ccc(COCc2csc3nc(C(=O)NCc4ccc(F)c(Cl)c4)[nH]c(=O)c23)cc1 | 228 to 230 °C
94 | CCC(=O)NC(=S)NCC1CC2c3cccc4[nH]cc(c34)CC2N(C)C1 (stereo not given) | 225 to 226 °C
95 | COc1ccc(C(=O)N2CCN(c3c(C)c(C)c4c(c3C)C(c3ccc(C)cc3)C(C)(C)O4)CC2)cc1 (stereo not given) | 163 to 165 °C
96 | CC(C)c1n[nH]c2c(Nc3cccc(Cl)c3)nc(Cl)nc12 | 257 to 259 °C
97 | O=C1ONCC12CCOc1ccc(F)cc12 (stereo not given) | 153 to 155 °C
98 | O=[N+]([O-])CC(SC(=S)N1CCCC1)c1ccccc1 (stereo not given) | 116 to 120 °C
99 | CC1(CNC(=O)C(F)(F)F)CN(C(c2ccccc2)c2ccccc2)C1 | 127 to 128 °C
100 | O=c1c2cccnc2c(-c2cccc(Cl)c2)cn1Cc1ccncc1 | 170 to 172 °C
